The text below walks through data of patent US20100204116A1, “USE OF CALCITONIN AS ANTI-ANGIOGENIC AGENT” (priority 2007, published 2010).

By viability is commonly meant a read-out of living cells in per cent, often relative to untreated cells. A lower viability goes with a greater loss of cells.

The test system of one series is CEM-SS cells. Description: Cytotoxicity (MTS cell viability) in the HIV-1 assay. To be noted: CEM-SS cells plus peptide only, 10 micrograms per ml.
For a further series, the system named is HIV-1IIIB. Nature of the series: HIV-1 antiviral assay (CPE reduction, MTS) in CEM-SS cells. To be noted: peptide 10 micrograms per ml, 6 days post-infection.
In another series the test system is HCMV strain AD169. Description: HCMV plaque reduction assay in MRC-5 cells. The format is cell-based. As to conditions: peptide 10 micrograms per ml, 7-10 days. From the text: Ganciclovir was used as positive control.
Background: Plaque reduction counts the foci of infection that form in a cell layer.

In series [1] the test system is Human A549 cells. Nature of the series: Propidium iodide cell cycle assay. The series is classed as cell-based. To be noted: peptide 10 micrograms per ml, 24 hours.
Series [2] deals with Human Peripheral Blood Mononuclear Cells (PBMC). Nature of the series: T cell proliferation assay (PHA, 3H-thymidine). To be noted: peptide 10 micrograms per ml. The format is cell-based.
Series [3] has the same test system. Nature of the series: B cell proliferation assay (SAC plus Interleukin-2, 3H-thymidine). The series is classed as cell-based. As to conditions: peptide 10 micrograms per ml.
A further series deals with RAW 264.7 cells. Nature of the series: Phagocytosis assay (Fluorescein-labeled Escherichia coli, flow cytometry). The format is cell-based, mouse. As to conditions: peptide 10 micrograms per ml. Here is the method:
RAW 264.7 (Mouse leukaemic monocyte macrophage cell line) cells were obtained from ATCC and grown in RPMI 1640 medium containing 10% FBS. […] After the cells were incubated for additional 60 min at 37° C. and allowed to ingest the Fluorescein-labeled Escherichia coli bacteria, cells were fixed with 1% paraformaldehyde. The samples were then analyzed by flow cytometry to determine the amount of phagocytosis as a function of brightness (the greater the phagocytic activity, the more fluorescence in the macrophage population). Data are reported as % positive and the mean fluorescence intensity (MFI) of positively stained cells.

Series [4] relates to Human A549 cells. Nature of the series: Apoptosis induction assay (Annexin-5). The series is classed as cell-based. As to conditions: peptide 10 micrograms per ml, 24 hours.
The subject of series [5] is Human A549 cells. Nature of the series: Apoptosis prevention assay (C2 ceramide, Annexin-5). The series is classed as cell-based. As to conditions: A549 cells pretreated 30 min with peptide 10 micrograms per ml, then C2 ceramide.
The test system of another series is spleen cells. Description: Th1/Th2 cytokine profiling assay (Ovalbumin-restimulated spleen cells, CBA kit). As to conditions: peptide 10 micrograms per ml; Ovalbumin restimulation; 72 hours. The series is classed as cell-based, Balb/c mice.
The subject of a further series is TNF alpha. Description: TNF alpha production assay (LPS-stimulated macrophages, ELISA). The format is cell-based, human. As to conditions: peptide 10 micrograms per ml, lipopolysaccharide 200 ng/ml, overnight. From the text:
Not stimulated macrophages served as negative background control.
On the technique in general: ELISA stands for enzyme-linked immunosorbent assay.

The subject of series [6] is Primary Human endothelial cells (HUVEC). Nature of the series: Endothelial cell migration assay. To be noted: peptide 10 micrograms per ml, 22 hours. The format is cell-based.
A further series concerns HUVEC. Nature of the series: Endothelial tube formation assay. To be noted: peptide 10 micrograms per ml, 20 hours. The format is cell-based, human. From the text:
Positive control was vehicle only.

Series [7] has as its system hepatitis B virus (HBV) ayw strain. Nature of the series: HBV experimental assay system (secreted HBV DNA, TaqMan PCR). To be noted: peptide 10 micrograms per ml; six days; HBV DNA in supernatant.
Series [8] in a line: Cytotoxicity (CellTiter 96 cell viability) in the HCMV assay. As to conditions: human, MRC-5 cells (human embryonal lung fibroblasts).
For series [9], the system named is MRC-5 cells (human embryonal lung fibroblasts). Described as above. As to conditions: MRC-5 cells; 6 days incubation; CellTiter 96.

Turning to `Cc1cn([C@H]2C[C@H](N=[N+]=[N-])[C@@H](CO)O2)c(=O)[nH]c1=O` [AZT, reference compound], the “% Cell viability” value in the series on CEM-SS cells is on record as 97%. The “% CPE reduction in HIV-1 infected CEM-SS cells” value in the series on HIV-1IIIB was determined as 99%.

`CC[C@H](C)[C@H](NC(=O)[C@H](C)NC(=O)[C@@H](NC(=O)[C@H](CCC(N)=O)NC(=O)[C@@H]1CCCN1C(=O)[C@H](Cc1ccccc1)NC(=O)[C@@H](NC(=O)[C@H](Cc1c[nH]cn1)NC(=O)[C@H](Cc1ccccc1)NC(=O)[C@H](CCCCN)NC(=O)[C@H](CC(N)=O)NC(=O)[C@H](Cc1ccccc1)NC(=O)[C@H](CC(=O)O)NC(=O)[C@H](CCC(N)=O)NC(=O)[C@@H](NC(=O)[C@H](Cc1ccc(O)cc1)NC(=O)[C@@H](NC(=O)CNC(=O)[C@H](CC(C)C)NC(=O)[C@H](CCSC)NC(=O)[C@@H]1CSSC[C@H](N)C(=O)NCC(=O)N[C@@H](CC(N)=O)C(=O)N[C@@H](CC(C)C)C(=O)N[C@@H](CO)C(=O)N[C@@H]([C@@H](C)O)C(=O)N1)[C@@H](C)O)[C@@H](C)O)[C@@H](C)O)[C@@H](C)O)C(=O)NCC(=O)N[C@H](C(=O)NCC(=O)N[C@@H](C)C(=O)N1CCC[C@H]1C(N)=O)C(C)C` [Calcitonin]: the “% plaque reduction” value with HCMV strain AD169 was found to be 5.8%. In the series with Human A549 cells [1], the “Cell cycle analysis G0/G1” value is reported as 57.0, the “Cell cycle analysis G2/M” value stood at 10.4 and the “Cell cycle analysis S” value is recorded as 32.6. For the same molecule, in [2], the “% of PHA induced Control” value worked out at 87.4%. Moreover, in [3], the “% of SAC/IL2 induced control” value is on record as 92.6%. For the same molecule, the “% of control phagocytosis” value in the series on RAW 264.7 cells is given as 102.9%. In the series on Human A549 cells [4], the “% of induction” value stood at 2.9%. Also, the “% prevention of ceramide induced apoptosis” value with Human A549 cells [5] is 32.7%. Further, in the series on spleen cells, the “IFNγ spleen cells; TH1 response (% of control)” value was 63.7 % of control, the “IL-2 spleen cells (% of control)” value is given as 110.1 % of control, the “IL-4 spleen cells; TH2 response (% of control)” value is on record as 0.0 % of control and the “IL-5 spleen cells; TH2 response (% of control)” value was 60.2 % of control. Further, in the series with spleen cells, the “TNF-a spleen cells; TH1 response (% of control)” value is 116.4 % of control. Also, in the series on TNF alpha, the “% of LPS induction” value is recorded as 93.4%. Further, the “% inhibition of migration” value in series [6] turned out to be 26%. Also, the “% inhibition of tube formation” value with HUVEC worked out at 18%. Also, in the series with HIV-1IIIB, the “% CPE reduction in HIV-1 infected CEM-SS cells” value came to 0.0%. Further, in series [7], the “% inhibition of HBV replication in HEP G2 cells” value was found to be 31.0%. Further, the viability at 144 h in [8] was determined as 100%.

As for `Nc1nc(O)c2ncn(COC(CO)CO)c2n1` [Ganciclovir, reference compound], the “% Cell viability” value in [9] came out at 100%.
